Laboratory results from PubChem BioAssay AID2060599 (Molecular Pharmacology Branch, DTP, NCI, 2025).
Where “and” joins values, the source holds several entries; their conditions need not be identical. Equal entries are not always repeated.

Test system: 817829-284-R-J1-PDC complex spheroids, viability
Test: Anticancer human tumor 817829-284-R-J1-PDC patient-derived colon adenocarcinoma cell line growth inhibition [CLK]
Settings: for viability, T/C: stronger effect = lower value
In short: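 Patient-derived tumor cells grown as complex spheroids with HUVEC endothelial cells and mesenchymal stem cells, treated with drug combinations. Concentrations descend in half-log steps from near clinical Cmax, or from 10 microM if Cmax unknown.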

[1] = curve of first compound, second compound 0.0316 µM
[2] = curve of first compound, second compound 0.1 µM
[3] = curve of first compound, second compound 0.316 µM
[4] = curve of first compound, second compound 1 µM
[5] = curve of first compound, second compound 3.16 µM
[6] = curve of first compound, second compound 10 µM
[7] = second compound 0.0316 µM, first compound 0.0316 µM
[8] = second compound 0.0316 µM, first compound 0.1 µM
[9] = second compound 0.0316 µM, first compound 0.316 µM
[10] = second compound 0.0316 µM, first compound 1 µM
[11] = second compound 0.0316 µM, first compound 3.16 µM
[12] = second compound 0.0316 µM, first compound 10 µM
[13] = second compound 0.1 µM, first compound 0.0316 µM
[14] = second compound 0.1 µM, first compound 0.1 µM
[15] = second compound 0.1 µM, first compound 0.316 µM
[16] = second compound 0.1 µM, first compound 1 µM
[17] = second compound 0.1 µM, first compound 3.16 µM
[18] = second compound 0.1 µM, first compound 10 µM
[19] = second compound 0.316 µM, first compound 0.0316 µM
[20] = second compound 0.316 µM, first compound 0.1 µM
[21] = second compound 0.316 µM, first compound 0.316 µM
[22] = second compound 0.316 µM, first compound 1 µM
[23] = second compound 0.316 µM, first compound 3.16 µM
[24] = second compound 0.316 µM, first compound 10 µM
[25] = second compound 1 µM, first compound 0.0316 µM
[26] = second compound 1 µM, first compound 0.1 µM
[27] = second compound 1 µM, first compound 0.316 µM
[28] = second compound 1 µM, first compound 1 µM
[29] = second compound 1 µM, first compound 3.16 µM
[30] = second compound 1 µM, first compound 10 µM
[31] = second compound 3.16 µM, first compound 0.0316 µM
[32] = second compound 3.16 µM, first compound 0.1 µM
[33] = second compound 3.16 µM, first compound 0.316 µM
[34] = second compound 3.16 µM, first compound 1 µM
[35] = second compound 3.16 µM, first compound 3.16 µM
[36] = second compound 3.16 µM, first compound 10 µM
[37] = second compound 10 µM, first compound 0.0316 µM
[38] = second compound 10 µM, first compound 0.1 µM
[39] = second compound 10 µM, first compound 0.316 µM
[40] = second compound 10 µM, first compound 1 µM
[41] = second compound 10 µM, first compound 3.16 µM
[42] = second compound 10 µM, first compound 10 µM
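Further: spheroids exposed to the agents for seven days before readout.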

O=C(c1cc(Cc2n[nH]c(=O)c3ccccc23)ccc1F)N1CCN(C(=O)C2CC2)CC1 + CNC(=O)c1ccc(Nc2nc(OC3CCCC3)c3c(-c4ccc5nc(C)oc5c4)c[nH]c3n2)c(OC)c1
IC50 [1]: < 31.6 nM | IC50 [2]: < 31.6 nM | IC50 [3]: < 31.6 nM | IC50 [4]: < 31.6 nM | IC50 [5]: < 31.6 nM | IC50 [6]: < 31.6 nM | viability, T/C [7]: 30.4% | viability, T/C [8]: 42.9% | viability, T/C [9]: 38% | viability, T/C [10]: 26.7% | viability, T/C [11]: 31.5% | viability, T/C [12]: 22.4% | viability, T/C [13]: 24.2% | viability, T/C [14]: 19.2% | viability, T/C [15]: 30.9% | viability, T/C [16]: 22.9% | viability, T/C [17]: 24.2% | viability, T/C [18]: 24.6% | viability, T/C [19]: 26.9% | viability, T/C [20]: 22% | viability, T/C [21]: 27.7% | viability, T/C [22]: 31.5% | viability, T/C [23]: 25% | viability, T/C [24]: 17.2% | viability, T/C [25]: 22.3% | viability, T/C [26]: 20.1% | viability, T/C [27]: 20% | viability, T/C [28]: 17.8% | viability, T/C [29]: 16.9% | viability, T/C [30]: 14.7% | viability, T/C [31]: 21.9% | viability, T/C [32]: 20.9% | viability, T/C [33]: 19.4% | viability, T/C [34]: 25.5% | viability, T/C [35]: 18.5% | viability, T/C [36]: 22% | viability, T/C [37]: 21.9% | viability, T/C [38]: 22.9% | viability, T/C [39]: 30.8% | viability, T/C [40]: 18.1% | viability, T/C [41]: 15.8% | viability, T/C [42]: 15.3%

C#Cc1c(F)ccc2cc(O)cc(-c3ncc4c(N5CC6CCC(C5)N6)nc(OCC56CCCN5CC(F)C6)nc4c3F)c12 (stereo not given) + CNC(=O)c1ccc(Nc2nc(OC3CCCC3)c3c(-c4ccc5nc(C)oc5c4)c[nH]c3n2)c(OC)c1
IC50 [1]: < 31.6 nM | IC50 [2]: < 31.6 nM | IC50 [3]: < 31.6 nM | IC50 [4]: < 31.6 nM | IC50 [5]: < 31.6 nM | IC50 [6]: 34.4 nM | viability, T/C [7]: 34.1% | viability, T/C [8]: 43.8% | viability, T/C [9]: 24.7% | viability, T/C [10]: 22.7% | viability, T/C [11]: 19.7% | viability, T/C [12]: 17.7% | viability, T/C [13]: 27% | viability, T/C [14]: 26.2% | viability, T/C [15]: 22.1% | viability, T/C [16]: 29.4% | viability, T/C [17]: 26% | viability, T/C [18]: 30.8% | viability, T/C [19]: 33.1% | viability, T/C [20]: 20.1% | viability, T/C [21]: 23.5% | viability, T/C [22]: 33.7% | viability, T/C [23]: 25.6% | viability, T/C [24]: 15.5% | viability, T/C [25]: 23.1% | viability, T/C [26]: 18.2% | viability, T/C [27]: 19% | viability, T/C [28]: 38% | viability, T/C [29]: 24.4% | viability, T/C [30]: 10% | viability, T/C [31]: 24.8% | viability, T/C [32]: 20.4% | viability, T/C [33]: 23% | viability, T/C [34]: 20.9% | viability, T/C [35]: 20.8% | viability, T/C [36]: 10.5% | viability, T/C [37]: 52.5% | viability, T/C [38]: 20.1% | viability, T/C [39]: 22.6% | viability, T/C [40]: 18.4% | viability, T/C [41]: 17.7% | viability, T/C [42]: 9.34%

Nc1ccn(C2OC(CO)C(O)C2(F)F)c(=O)n1 (stereo not given)
viability, T/C (compound 0.0316 µM): 4.87% and 7.45% | viability, T/C (compound 0.1 µM): 5.51% and 7.25% | viability, T/C (compound 0.316 µM): 4.21% and 7.26% | viability, T/C (compound 1 µM): 3.92% and 6.91% | viability, T/C (compound 3.16 µM): 3.8% and 5.67% | viability, T/C (compound 10 µM): 2.53% and 4.69% | IC50 (curve of compound): < 31.6 nM

CC(C)CC(NC(=O)C(Cc1ccccc1)NC(=O)c1cnccn1)B(O)O (stereo not given) + CNC(=O)c1ccc(Nc2nc(OC3CCCC3)c3c(-c4ccc5nc(C)oc5c4)c[nH]c3n2)c(OC)c1
IC50 [1]: < 0.949 nM | IC50 [2]: < 0.949 nM | IC50 [3]: < 0.949 nM | IC50 [4]: < 0.949 nM | IC50 [5]: < 0.949 nM | IC50 [6]: < 0.949 nM | viability, T/C (second compound 0.0316 µM, first compound 0.000949 µM): 31.9% | viability, T/C (second compound 0.0316 µM, first compound 0.003 µM): 0.67% | viability, T/C (second compound 0.0316 µM, first compound 0.00949 µM): 0.14% | viability, T/C (second compound 0.0316 µM, first compound 0.03 µM): 0.16% | viability, T/C (second compound 0.0316 µM, first compound 0.0949 µM): 0.14% | viability, T/C (second compound 0.0316 µM, first compound 0.3 µM): 0.09% | viability, T/C (second compound 0.1 µM, first compound 0.000949 µM): 25% | viability, T/C (second compound 0.1 µM, first compound 0.003 µM): 0.93% | viability, T/C (second compound 0.1 µM, first compound 0.00949 µM): 0.22% | viability, T/C (second compound 0.1 µM, first compound 0.03 µM): 0.17% | viability, T/C (second compound 0.1 µM, first compound 0.0949 µM): 0.11% | viability, T/C (second compound 0.1 µM, first compound 0.3 µM): 0.1% | viability, T/C (second compound 0.316 µM, first compound 0.000949 µM): 23% | viability, T/C (second compound 0.316 µM, first compound 0.003 µM): 0.45% | viability, T/C (second compound 0.316 µM, first compound 0.00949 µM): 0.13% | viability, T/C (second compound 0.316 µM, first compound 0.03 µM): 0.6% | viability, T/C (second compound 0.316 µM, first compound 0.0949 µM): 0.08% | viability, T/C (second compound 0.316 µM, first compound 0.3 µM): 0.13% | viability, T/C (second compound 1 µM, first compound 0.000949 µM): 14.7% | viability, T/C (second compound 1 µM, first compound 0.003 µM): 0.18% | viability, T/C (second compound 1 µM, first compound 0.00949 µM): 0.14% | viability, T/C (second compound 1 µM, first compound 0.03 µM): 0.09% | viability, T/C (second compound 1 µM, first compound 0.0949 µM): 0.13% | viability, T/C (second compound 1 µM, first compound 0.3 µM): 0.16% | viability, T/C (second compound 3.16 µM, first compound 0.000949 µM): 12.5% | viability, T/C (second compound 3.16 µM, first compound 0.003 µM): 0.39% | viability, T/C (second compound 3.16 µM, first compound 0.00949 µM): 0.14% | viability, T/C (second compound 3.16 µM, first compound 0.03 µM): 0.1% | viability, T/C (second compound 3.16 µM, first compound 0.0949 µM): 0.22% | viability, T/C (second compound 3.16 µM, first compound 0.3 µM): 0.09% | viability, T/C (second compound 10 µM, first compound 0.000949 µM): 11.3% | viability, T/C (second compound 10 µM, first compound 0.003 µM): 0.15% | viability, T/C (second compound 10 µM, first compound 0.00949 µM): 0.16% | viability, T/C (second compound 10 µM, first compound 0.03 µM): 0.14% | viability, T/C (second compound 10 µM, first compound 0.0949 µM): 0.23% | viability, T/C (second compound 10 µM, first compound 0.3 µM): 0.11%

C#Cc1c(F)ccc2cc(O)cc(-c3ncc4c(N5CC6CCC(C5)N6)nc(OCC56CCCN5CC(F)C6)nc4c3F)c12 (stereo not given) + CN1CCN(c2cc(C(=O)Nc3cc4cc(-c5cnn(C)c5)ccc4cn3)ccn2)CC1
IC50 [1]: 4960 nM | IC50 [2]: < 31.6 nM | IC50 [3]: < 31.6 nM | IC50 [4]: < 31.6 nM | IC50 [5]: < 31.6 nM | IC50 [6]: < 31.6 nM | viability, T/C [7]: 83.1% | viability, T/C [8]: 61% | viability, T/C [9]: 66.3% | viability, T/C [10]: 68.5% | viability, T/C [11]: 57.3% | viability, T/C [12]: 40.5% | viability, T/C [13]: 24.2% | viability, T/C [14]: 19.4% | viability, T/C [15]: 19.8% | viability, T/C [16]: 17.4% | viability, T/C [17]: 15.2% | viability, T/C [18]: 11.8% | viability, T/C [19]: 2.71% | viability, T/C [20]: 2.39% | viability, T/C [21]: 2.14% | viability, T/C [22]: 2.39% | viability, T/C [23]: 2.31% | viability, T/C [24]: 1.5% | viability, T/C [25]: 0.1% | viability, T/C [26]: 0.14% | viability, T/C [27]: 0.17% | viability, T/C [28]: 0.12% | viability, T/C [29]: 0.09% | viability, T/C [30]: 0.09% | viability, T/C [31]: 0.15% | viability, T/C [32]: 0.13% | viability, T/C [33]: 0.15% | viability, T/C [34]: 0.16% | viability, T/C [35]: 0.13% | viability, T/C [36]: 0.07% | viability, T/C [37]: 0.1% | viability, T/C [38]: 0.11% | viability, T/C [39]: 0.11% | viability, T/C [40]: 0.16% | viability, T/C [41]: 0.17% | viability, T/C [42]: 0.13%
